We go through 25 compounds from US10617689B2, “Compositions, methods and uses for the treatment of diabetes and related conditions by controlling blood glucose level” (PHARNEXT, priority 2013, dated 2020).

SMILES strings stand for the structures.

Series [1] in a line: Results synthesis: relative performance value over all in vitro models. As to conditions: results of all in vitro models normalized and weighed; single drugs. The source says: Table 4 gathers results that were obtained in all previously described models (see points from 1.1 to 1.5 above). A value is attributed to each candidate compound depending on its effect in the different in vitro models compared to vehicle. Results are normalized and weighed in order to generate a relative performance value for each candidate compound. A high value reflects a high potential of the compound for the normalization of glucose level and thus a significant efficacy for controlling glucose levels and/or for the treatment of diabetes or related disorders. […]

Series [2] has as its system human primary myotubes derived from a diabetic patient. In words: Glucose uptake in human diabetic myotubes primary cultures. The note with it: for enhancement of glucose uptake: pre-treatment. Type of series: cell-based. The method, then: In order to have a model that is most reflective of the diabetic pathological conditions, efficiency of drugs in enhancing glucose uptake in diabetic myotubes was tested. […] The myotubes from a diabetic patient were grown on HAM's F10-based media (Sigma, ref […]) supplemented with 15% of fetal bovine serum, 1 mM glutamine. Myoblast were seeded at 380,000 cells/well in 12-well plates. After 2 days of proliferation, the cells were placed in reduced serum conditions (2% horse serum) to induce differentiation. The myotubes were used after 5 days of differentiation. Dulbecco's modified Eagle's medium (DMEM)-based media (Gibco, ref 31053-028) supplemented with 2% heat-inactivated Horse serum, 2% Glutamax (Gibco, 35050) and washed for glucose uptake assays. Compounds were dissolved in DMSO to reach desired final concentration prior use. The differentiated myotubes were treated for 24 h with the compositions of the invention, before the assay. Before the initiation of glucose uptake, the cells were deprived of serum and glucose. […] After adding the compounds at the desired concentrations, the cells were incubated at 37° C. during 2 h30. […] A subsequent glucose and serum deprivation was performed in FIBS buffer at 37° C. for 2 hours. […] The cells were rinsed twice with 1 mL of cold PBS. The lysis was performed in 500 μL of 0.05N NaOH for 20 minutes. The cells lysates were transferred into scintillation vials for the measurement of radioactivity with a MicroBeta counter.

In series [3] the test system is TNF-α induced insulin resistant 3T3-L1 adipocytes. Briefly: Glucose uptake in TNFα induced insulin resistant 3T3-L1 differentiated adipocytes. Type of series: cell-based. The note with it: for glucose uptake (in words): not shown. The protocol: 3T3L1 fibroblasts were maintained in DMEM 4.5 g/L glucose supplemented with 5% calf serum donor, 5% new born calf serum, 100 U/mL penicillin, and 100 μg/mL streptomycin at 37° C. under a 10% CO2 atmosphere. Cells were grown on 24 well plates at a density of 2560 cells/well in 0.5 mL of growth medium (DMEM 4.5 g/L glucose supplemented with 10% FCS, 100 U/mL penicillin, and 100 μg/mL streptomycin). […] Fresh medium were replaced after two days.
Glucose uptake was measured by quantification of incorporated radiolabelled glucose, after an incubation step with 2-deoxy-D[1,2^3H] glucose for 5 min. Glucose uptake was arrested by two washing steps in ice-cold PBS 1×. Then were solubilized in 0.1N NaOH for 30 min. Cell associated radioactivity have been then counted by using a MicroBeta counter after adding 600 μL per well of scintillant (Optiphase SuperMix3).
In parallel, protein quantification was determined by a colorimetric assay derived from LOWRY method. Results are expressed in nmol of glucose incorporated/5 min/mg of protein and in % of control or basal condition (100%).

The conditions of series [4]: mainly from Martindale (Edition 2011) and Nathan et al. (2009); cited from earlier work.
For series [5], the system named is beta pancreatic INS-1 cells. In words: Prevention of beta cells apoptosis. Type of series: cell-based. The note with it: 1 h pre-incubation then 24 h in apoptotic condition, drugs tested alone. The method, then:
Drugs of the invention have been tested for their efficiency in protecting beta cells from apoptosis. Such activity could be considered of use in type 1 diabetes as well as in type 2 diabetes.
The beta pancreatic INS-1 cells have been selected for this study. The cells are cultured in complete medium, RPMI 1640 10 mM glucose supplemented with 1 mM sodium pyruvate, 50 μM 2-mercaptoethanol, 2 mM glutamine, 10 mM HEPES, 100 IU/mL penicillin, 100 μg/mL streptomycin and 10% heat-inactivated foetal calf serum (FCS), as described by Asfari et al. (23). INS-1 cells are plated (4.5×10^4 cells/well) in 96-well poly ornithine coated plates and cultured at 37° C. in a humidified atmosphere of 95% air/5% CO2. The day after, cells are pre-incubated with the tested molecules for 1 h. Then, after a medium change, cells are cultured for 24 h in a medium containing the tested molecules and glucose 30 mM, myristic acid 0.05 mM, INF 25 ng/mL, TNF 25 ng/mL and IL 5 ng/mL.
The efficacy of compounds to prevent apoptosis is then evaluated by the highly specific apoptosis detection kit from Chemicon (Ref. APT225). This procedure is based on the detection of single-stranded DNA (ssDNA) which is a specific marker of apoptotic cells (24).
Results are expressed in optical density (OD) arbitrary unit and % of reduction of the apoptosis induced by apoptotic condition. […]

For series [6], the system named is Mouse muscle cells H-2 Kb. In words: Glucose uptake in mouse muscle cells. Type of series: cell-based. The note with it: H-2 Kb cells; short term; 0.1 μM; vs non-treated cells. The method, then: For differentiation in myoblast, cells are switched to non-permissive culture conditions (37° C. in a humidified atmosphere of 95% air/5% CO2; DMEM 5.5 mM D-glucose supplemented with 2% FCS, 10% horse serum, 2% glutamine, 1% chicken embryo extract, 100 U/mL penicillin, and 100 μg/mL streptomycin).
For long term effect evaluation, the day before glucose uptake assay, cells are incubated in DMEM 5.5 mM D-glucose supplemented with 10% horse serum, 2% SVF, 1% chicken embryo extract, 2% glutamine in the presence of the tested molecules for 16 h. […]
For short term effect evaluation, 4 hours prior to the glucose test, cells are washed and incubated in a serum-free medium (DMEM) containing 5.5 mM D-glucose and the tested molecules. Then glucose uptake is measured by incubation of the cells for 5-10 min with radiolabelled 2-deoxy-D-[1,2 ^3H] glucose in Krebs-Ringer HEPES buffer (KRBH; pH 7.4) 0.1% Bovine Serum Albumine (BSA) fraction V (Sigma_A-4503). […] Cell associated radioactivity is then counted and protein quantification is determined using the colorimetric Lowry method. Glucose uptake is estimated by measuring the radioactivity incorporated to the cells by a MicroBeta counter after adding 600 μL per well of scintillant (Optiphase SuperMix3).
Protein quantification is performed by a colorimetric assay derived from Lowry method. […]

In series [1], `Cc1c(Cl)cccc1Nc1ccccc1C(=O)O` [tolfenamic acid] came in with a Relative performance value of 9. Also, the “enhancement of glucose uptake” value is given as “+13%” in series [2] (0.01 μM), “+13%” in series [2] (0.1 μM) and “+12%” in series [2] (1 μM). For the same compound, the “glucose uptake (in words)” value in series [3] (100 nM and 1 μM) was “improvement”. Moreover, in series [3] (alone at 3.3 nM), the “glucose uptake, drug used alone (in words)” value is “No significant effect”.
As for `CN/C(=N/CCSCc1nc[nH]c1C)NC#N` [cimetidine], the Relative performance value in series [1] is reported as 31.
Turning to `CN(C)CC[C@@H](c1ccc(Br)cc1)c1ccccn1` [dexbrompheniramine], in series [1], the Relative performance value is 21.
In series [1], `C[C@@H]1CC(=O)NN=C1c1ccc(NN=C(C#N)C#N)cc1` [levosimendan] returned a Relative performance value of 20.
Consider `CCN(CC)CCOCCOC(=O)C1(c2ccccc2)CCCC1` [carbetapentane], for which the Relative performance value in series [1] came out at 33.
The same measure, in the same setting: the figure for `c1cnc(N2CCN(Cc3ccc4c(c3)OCO4)CC2)nc1` [piribedil] is 24; for `Cc1ccc(C(=O)C(C)CN2CCCCC2)cc1` (centres unmarked) [tolperisone] it is 19.
`CCN(CC)C(=O)N1CCN(C)CC1` [diethylcarbamazine] registered a Relative performance value in series [1] of 32.
`Cc1cccc(C)c1OCC(C)N` (centres unmarked) [mexiletine] came in with a Relative performance value in series [1] of 10.
With `O=C1NCC2(CCN(CCc3ccccc3)CC2)O1` [fenspiride], the “enhancement of glucose uptake” value is recorded as “+34%” in series [2] (0.01 μM), “+30%” in series [2] (0.1 μM) and “+27%” in series [2] (1 μM). Further, the “glucose uptake (in words)” value in series [3] (0.37 nM and 3.3 nM) is reported as “improvement”.
For `CC(C(O)c1ccc(O)cc1)N1CCC(Cc2ccccc2)CC1` (centres unmarked) [ifenprodil], the Relative performance value in series [1] is listed as 28. In addition, the “glucose uptake (in words)” value is on record as “improvement” in series [2] (0.1 μM and 1 μM); “improvement” in series [3] (10 nM and 100 nM). Further, the “enhancement of glucose uptake” value in series [2] (0.01 μM) was “+48%”.
On to `CN(C)C(=N)N=C(N)N` [metformin], for which the “glucose uptake, drug used alone (in words)” value in series [3] (metformin alone at 250 μM) is given as “No significant effect”.
In the case of `NCC(CC(=O)O)c1ccc(Cl)cc1` (racemic) [baclofen], the Relative performance value in series [1] is on record as 16. The “glucose uptake, drug used alone (in words)” value in series [3] (alone at 3.3 nM) was “No significant effect”.
As for `C[C@@H](NCCCc1cccc(C(F)(F)F)c1)c1cccc2ccccc12` [cinacalcet], in series [1], the Relative performance value is 32.
`CCN[C@@H](C)Cc1cccc(C(F)(F)F)c1` [dexfenfluramine]: the “Side Effects” value in series [4] is listed as “Cardiovascular”.
Take `CC(=O)NCCCS(=O)(=O)O` [acamprosate]: the Relative performance value in series [1] is 15. Further, the “Percentage of apoptosis reduction” value in series [5] came out at 49%. Also, in series [6], the “enhancement of glucose uptake” value is “+45%”.
The compound `C1COC(NC(C2CC2)C2CC2)=N1` [rilmenidine] displayed a Relative performance value in series [1] of 16.
Take `Cc1cccc(Nc2ccncc2S(=O)(=O)NC(=O)NC(C)C)c1` [torasemide]: the Relative performance value in series [1] is reported as 16. The “enhancement of glucose uptake” value is “+24%” in series [2] (0.01 μM) and “+14%” in series [2] (1 μM). For the same compound, the “glucose uptake, drug used alone (in words)” value in series [3] (alone at 10 nM) was “No significant effect”.
For the compound `Nc1nc(N)c2nc(-c3ccccc3)c(N)nc2n1` [triamterene], the Relative performance value in series [1] came out at 18. For the same compound, in series [2] (0.01 μM), the “enhancement of glucose uptake” value is “+13%”. Besides, the “glucose uptake, drug used alone (in words)” value in series [3] (alone at 3.3 nM) is listed as “No significant effect”.
`CN1CCCC(n2nc(Cc3ccc(Cl)cc3)c3ccccc3c2=O)CC1` (centres unmarked) [azelastine] came in with a Relative performance value in series [1] of 30.
For `COC1=C(OC)C(=O)C(CCCCCCCCCCO)=C(C)C1=O` [idebenone], the Relative performance value in series [1] is listed as 53.
In series [1], `C=CCNc1nc(NCC=C)nc(N2CCN(C(c3ccc(F)cc3)c3ccc(F)cc3)CC2)n1` [almitrine] registered a Relative performance value of 38.
`CO[C@]12C[C@@H](COC(=O)c3cncc(Br)c3)CN(C)[C@@H]1Cc1cn(C)c3cccc2c13` [nicergoline]: the Relative performance value in series [1] stood at 40.
With `O=C[C@@H](O)[C@@H](O)[C@H](O)[C@H](O)CO` [D-mannose], the Relative performance value in series [1] is 18.
Same read-out and setting: as for `Cn1c(=O)c2c(ncn2CC(O)CO)n(C)c1=O` (centres unmarked) [diprophylline], the figure is 11.
